Reference: patent US20050071891A1, “Repressible sterility of animals” (priority 1999, published 2005)

Experiments:
Pacific oyster larvae = assay: Electroporation of oyster sperm, GUS as reporter gene; format: in vivo, Crassostrea gigas
Experimental: Mature oysters (Crassostrea gigas) were obtained from local hatcheries in Tasmania and New South Wales, and held in artificial seawater at 10° C. until required. Eggs were collected from 2-3 females by stripping the gonads and were pooled, rinsed on a 20 μm mesh, and left to condition in artificial sea water for 2 h. Sperm were stripped from male gonads, diluted to approximately 10,000 gametes/μl, and used immediately for electroporation-mediated nucleic acid delivery. Plasmid DNA (50 μg/ml) or double-stranded RNA (dsRNA; 1 μg/ml) was delivered into 1×10^6 sperm using a BioRad Gene Pulser II electroporator in 0.2 cm gap electroporation cuvettes. Sperm were subjected to a single electroporation pulse (50 V, 100% modulation, 10 kHz, 12.5 msec) and immediately mixed with 5000 oocytes. Fertilized embryos and developing larvae were reared at 20° C. in artificial seawater containing 0.1 μg/ml chloramphenicol. Surviving larvae were counted after 24 h development. For experiments in which the Drosophila melanogaster heat shock promoter was used to drive expression of the delivered genes, a 1 h heat shock at 37° C. was provided either at 2 h or 18 h post fertilization, and development was then permitted to proceed at 20° C.
Transfection efficiencies were also assessed in a second set of experiments that examined delivery of pHSP-GUS construct (SEQ ID NO:21). The pHSP-GUS construct was made in a two step fashion. First, the D. melanogaster heat shock promoter and terminator were isolated from the pCaSpeR-hs plasmid (Thummel and Pirrotta, 1992, Drosophila Information Service 71: 150) by PCR using the two primers: […]
GUS activity in these experiments was measured using a fluorometric assay as previously described (Jefferson, R A 1987).

HoxCG1 gene = assay: Arrested development of oyster embryos transfected with hairpin dsRNA plasmid; format: in vivo
Experimental: In vivo expression of dsRNA was achieved by transfecting oyster larvae with the pBiT(dHSP)-RFP-oHoxDS/BH plasmid (FIG. 21; SEQ ID NO:20), which contains the heat inducible promoter (PHSP70) from D. melanogaster driving the expression of a hairpin RNA molecule specific to the HoxCG1 gene. The construct was prepared as follows. SEQ ID NO:23 (AGAL ref #: NM99/09101) was used as a template to generate a PCR fragment using the following primers: […]
Oyster sperm were transfected with the DNA using electroporation, and oocytes were fertilized and larvae allowed to develop for 96 hours. Embryos were heat shocked for one hour at 3 hours post fertilization to induce transcription of the dsRNAs.

HoxCG1 = assay: Reversible arrested oyster larval development with tetracycline-responsive plasmid; format: in vivo; details: 72 hours
Description: The second Sterile Feral Construct tested for oysters, expresses the tTA under the Drosophila HSP. The tTA then drives expression of red fluorescent protein and double stranded oyster Hox via the TRE. Three separate fragments were ligated together to form this construct. The first fragment was obtained by digestion of pBiT(dHSP)-EGFP, (Seq ID NO:19), with HindIII and NheI followed by gel purification of the appropriate fragment containing the Drosophila HSP promoter. The second fragment was obtained by digesting pBiT(dHSP)-EGFP with NotI and MluI followed by gel purification of the appropriate fragment containing the TRE. The third fragment was obtained by digesting pHSP-oHoxDS/BH with MluI and. SpeI and gel purifying the appropriate fragment containing the 510 bp fragment of the zBMP2 cDNA from sequence 301-810 in the published cDNA sequence (Lee et al., 1998). The fourth fragment was obtained by firstly subcloning into pGEM3zf a KpnI/XbaI fragment containing the coding region of red fluorescent protein (RFP) that was excised from pDsRed1-N1 (Clontech, PT3405-5) vector. The resulting plasmid was then subjected to digestion with HindIII and PspOMI and the appropriate fragment containing the coding region of RFP was then gel purified from this reaction. […]

goosecoid = assay: Cotransfection of blocker plasmids with pSFM 6 (goosecoid fused to RFP) in P19-pSFM 7 cells; format: cell-based, mouse; details: transiently cotransfected with pSFM 6
Experimental: (§1) Fluorescent and transmitted light images were acquired using a CCD camera with a microscope. […] The luminescence assays were conducted by using a dark 96 well plate was done by Victor2 from Wallac or by Topcount NXT from Can berra Packard.
The first stage for testing blocker constructs is to set up an appropriate cell system to detect expression of reporter constructs. Initially, either pdsRED-N1 (CMV promoter RFP), pSFM 6 (CMV promoter goosecoid cDNA fused to RFP) or pSFM 24 (TRE EGFP) were transfected into P19-pSFM 7 cells to test the expression patterns of the EGFP, RFP and goosecoid-fused to RFP proteins (FIG. 37). […] In these cases, RFP expression fused to goosecid in the nucleus is expected to be inhibited in the presence of an appropriate blocker.
In order to assess various antisense and dsRNA blockers, pSFM 6 (CMV promoter goosecoid fused to RFP) was transiently cotransfected into the P19-pSFM 7 (Goosecoid promoter TET/OFF) cells along with either pSFM 5 (TRE promoter dsRNA goosecoid), pSFM 8, (CMV promoter antisense goosecoid), pSFM 9 (TRE promoter antisense goosecoid) or pSFM 24 (TRE promoter EGFP). […] There are several potential reasons for the absence of RNA blocker effects. First, antisense and dsRNA blockers may not be expressed at levels high enough to effectively interfere with the target mRNA molecules. Secondly, there may be cellular mechanisms in mammals that recognize and interfere with such constructs. Thirdly, the RNA inhibitory molecules may not be able to access and block the RNA target.

P19-pSFM 7 cells [1] = assay: Luciferase activity of reporter plasmids transiently transfected in P19-pSFM 7 cells; format: cell-based, mouse; details: for luciferase activity, Fold: relative to pSFM 21; for luciferase activity, Average: transient transfection
Description: Reporter plasmids pSFM 20 (goosecoid promoter luciferase+), pSFM 21 (promoterless luciferase+), pSFM 23 (CMV promoter luciferase+) and pSFM 25 (TRE luciferase+) were transiently transfected into either P19 or P19-pSFM 7 (Goosecoid TET/OFF) cells to test the effectiveness of the TET-OFF genetic switch driven by goosecoid promoter.

P19 cells = assay: Luciferase activity of reporter constructs transiently transfected in P19 cells; format: cell-based, mouse; details: for luciferase activity compared to the promoterless construct (pSFM 21) / luciferase activity, Average / luciferase activity, Fold: P19 cells; for luciferase activity compared to the promoterless construct (pSFM 21): transient; for luciferase activity, Average: transient transfection; for luciferase activity, Fold: relative to pSFM 21
Experimental: For transient transfection assays, P19 cells were cultured on gelatinized dishes in DMEM supplemented with 10% fetal bovine serum. Cells (0.3 million per well in 6-well cluster plates) were transfected with 5 μg reporter plasmid using transfection reagent ‘Geneporter’ from Gene Therapy Systems according manufacturer's recommendation.
as §1
P19 cells were transiently transfected in 6 well plates with pSFM 20 (goosecoid promoter-luciferase), pSFM 21 (promoterless luciferase) and pSFM 23 (CMV promoter-luciferase) using Gene Porter. Cells were harvested at various times post-tranfection and assayed for luciferase activity using a Promega kit (Cat. # E1501) in a Top Count NXT luminometer. […]

P19-pSFM 7 cells [2] = assay: Luciferase activity of pSFM 25 in P19 clones stably integrated with pSFM 7; format: cell-based, mouse
Experimental: Stably integrated P19 clones were obtained by using BioRad Gene Pulser II electroporation system. 30 μg DNA electroporated into 10 million cells under following conditions 960 μF and 0.16 kV in a 0.4 cm cuvette (0.4 kV/cm). The next day normal media were replaced with appropriate selection media (300 μg/ml G418).
Selection of a P19 cell line stably integrated with a goosecoid-dependent TET-OFF transactivator P19 cells were electroporated with pSFM 7 (Goosecoid promoter-TET/OFF) linearised with ApaLI and selected for stable integration.
Table 20 showes the luciferase activities of pSFM 25 (TRE luciferase+) shown in counts per second (cps) of transiently transfected in P19-pSFM 7 cells.
Addition of doxycycline at 1 μg/ml reduced luciferase activity from pSFM 25 in this clone by 90 fold. This clone, containing stably integrated pSFM 7 was therefore designated P19-pSFM 7 and used for further testing.

Substance	intensity or number of cells expressing RFP in the nucleus (goosecoid)	luciferase activity, Fold (P19-pSFM 7 cells [1])	luciferase activity, Average (P19-pSFM 7 cells [1])	luciferase activity (P19 cells; 24 hours post-transfection)	luciferase activity (P19 cells; 48 hours post-transfection)	luciferase activity (P19 cells; 72 hours post-transfection)	luciferase activity, Average (P19 cells)	luciferase activity, Fold (P19 cells)	also measured
pHSP-GUS: expresses GUS under the control of the D. melanogaster heat shock promoter (SEQ ID NO:21)									GUS activity (Pacific oyster larvae; electroporation, heat shock): 83.2 ± 5.4 fluorescence units/μg protein; GUS activity relative to controls (Pacific oyster larvae; electroporation, heat shock): 19.8; GUS activity (Pacific oyster larvae; electroporation, no heat shock): 10.5 ± 0.5 fluorescence units/μg protein; GUS activity relative to controls (Pacific oyster larvae; electroporation, no heat shock): 2.5; GUS activity (Pacific oyster larvae; no electroporation, heat shock): 4.5 ± 0.5 fluorescence units/μg protein; GUS activity relative to controls (Pacific oyster larvae; no electroporation, heat shock): 1.1; % arrested development (HoxCG1 gene; no heat shock): 6 ± 2%; % arrested development (HoxCG1 gene; with heat shock (one hour at 3 hours post fertilization)): 8 ± 3%; % arrested development (HoxCG1; No doxycycline): 5 ± 3%; % arrested development (HoxCG1; With doxycycline (5 μg/μl)): 4 ± 3%
pSFM 5: Tet-responsive expression vector pTRE-goosecoid double strand RNA	significant difference could not be detected								
pSFM 8: pCMV promoter expressing goosecoid antisense RNA	significant difference could not be detected								
pSFM 9: Tet-responsive expression vector pTRE-goosecoid antisense RNA	significant difference could not be detected								
pSFM 20: goosecoid promoter expressing luciferase+ protein		6	365	1263 cps	3707 cps	1692 cps	610	5	luciferase activity compared to the promoterless construct (pSFM 21) (P19 cells): 6 fold
pSFM 21: promoterless luciferase+		1	60	254 cps	604 cps	252 cps	121	1	
pSFM 23: pCMV promoter expressing luciferase+		267	16031	78778 cps	145403 cps	49936 cps	44491	367	luciferase activity compared to the promoterless construct (pSFM 21) (P19 cells): 200-300 fold
pSFM 25: Tet-responsive expression vector pTRE-luciferase+		6	368				183	1.5	luciferase activity (P19-pSFM 7 cells [2]; clone 9, with doxycycline): 54858 cps; luciferase activity (P19-pSFM 7 cells [2]; clone 9, without doxycycline): 582529 cps; luciferase activity (P19-pSFM 7 cells [2]; clone 12, with doxycycline): 4396 cps; luciferase activity (P19-pSFM 7 cells [2]; clone 12, without doxycycline): 417268 cps; luciferase activity (P19-pSFM 7 cells [2]; clone 29, with doxycycline): 48260 cps; luciferase activity (P19-pSFM 7 cells [2]; clone 29, without doxycycline): 616604 cps; luciferase activity (P19-pSFM 7 cells [2]; clone 32, with doxycycline): 19548 cps; luciferase activity (P19-pSFM 7 cells [2]; clone 32, without doxycycline): 272888 cps; luciferase activity (P19-pSFM 7 cells [2]; clone 46, with doxycycline): 8013 cps; luciferase activity (P19-pSFM 7 cells [2]; clone 46, without doxycycline): 703470 cps
